Literature values in patent US20230233180A1, “Emergency Ultrasound Gel” (priority 2022, published 2023).
In brackets after ≈: the same amount, converted by molar mass. Where two headings read alike, the source gives them in different places.

Experiments:
[1] = tested on: Candida albicans
[2] = tested on: wide range of bacteria; conditions: bactericidal
[3] = tested on: wide variety of yeast and fungi

Structure (SMILES)	MIC ([1]; Canddia albicans M9)	MIC ([1]; Candida albicans 10231)	MIC ([1]; Candida albicans H33)	MIC ([1]; Candida albicans H37)	MIC ([1]; Candida albicans H38)	MIC ([1]; Candida albicans M28)	MIC ([1]; Candida albicans M36)	MIC ([1]; Candida albicans SCO)	MIC ([1]; Candida albicans Ser5)	MIC ([1]; Candida. albicans H65)	concentration that kills a wide range of bacteria [2]	antifungal effect [3]
CCCCN1CCCCC1C(=O)Nc1c(C)cccc1C (stereo not shown) [Bupivacaine]	1300 µg/mL (≈ 4.51 mM)	2500 µg/mL (≈ 8.67 mM)	2500 µg/mL (≈ 8.67 mM)	5000 µg/mL (≈ 17.3 mM)	2500 µg/mL (≈ 8.67 mM)	1300 µg/mL (≈ 4.51 mM)	2500 µg/mL (≈ 8.67 mM)	1300 µg/mL (≈ 4.51 mM)	2500 µg/mL (≈ 8.67 mM)	1300 µg/mL (≈ 4.51 mM)	–	–
CCN(CC)CC(=O)Nc1c(C)cccc1C [Lidocaine]	2500 µg/mL (≈ 10.7 mM)	5000 µg/mL (≈ 21.3 mM)	5000 µg/mL (≈ 21.3 mM)	10000 µg/mL (≈ 42.7 mM)	5000 µg/mL (≈ 21.3 mM)	2500 µg/mL (≈ 10.7 mM)	5000 µg/mL (≈ 21.3 mM)	2500 µg/mL (≈ 10.7 mM)	5000 µg/mL (≈ 21.3 mM)	2500 µg/mL (≈ 10.7 mM)	–	–
O=C([O-])CNCO.[Na+] [Sodium hydroxymethylglycinate]	–	–	–	–	–	–	–	–	–	–	0.09%	does not have strong antifungal effect
